In patent US6348445B1, “Biologically active peptides with reduced toxicity in animals and a method for preparing same” (priority 1992, dated 2002):
Where a SMILES comes first, the peptide text is derived from it. [ ]: non-standard residue; d: D form. The star is where a group is joined. Octanoyl = CCCCCCCC(=O)*; Orn = NCCC[C@H](N)C(=O)O

Columns and labels:
Assay type in all cases: cell-based
[1] = test system: E. coli ATCC strain 25922; test: Minimal Inhibitory Concentration, microtiter broth dilution; conditions: ATCC strain 25922
Text: (§1) Table I, which follows, indicates the Minimal Inhibitory Concentration (MIC) in […] of various peptides against S.aureus strain ATCC 25923(S), P. aeruginosa strain ATCC 27853(P), E. coli ATCC strain 25922(E), and C. 4albicans (CA). […] The peptides are unsubstituted at the N-terminal; substituted with an acetyl group at the N-terminal, as indicated by Ac-; substituted with an octanoyl group at the N-terminal, as indicated by Oct-; substituted with spinogosine, as indicated by Sph-; substituted with a succinyl group, as indicated by Suc-; substituted with a hexanoyl group, as indicated by Hex-; substituted with a heptanoyl group, as indicated by Hep-; substituted with a valeryl group, as indicated by Val-; substituted with a myristryl group, as indicated by Myr-; or substituted with an ibuprofyl group, as indicated by Ibu-;
(§2) The procedure for the anti-bacterial assay is based upon the guidelines of the National Committee for Clinical Laboratory Standards, Document M7-T2, Volume 8, No. 8, 1988, which document is entirely incorporated herein by reference.
(§3) Stock solutions of peptides, with and without the appropriate substitutions, were prepared at a concentration of 512 μg/ml in sterile deionized distilled water and stored at −70° C.
(§4) The stock peptide solution was diluted in serial dilutions (1:2) down the wells of a microtiter plate so that the final concentrations of peptides in the wells were 0.25, 0.50, 1, 2, 4, 8, 16, 32, 64, 128 and 256 μg/ml. 1-5×10^5 CFUs/ml of either S. aureus ATCC 25923, E. coli ATCC 25922, P. aeruginosa ATCC 27853, or C. albicans, were added to the wells in full strength Mueller Hinton broth (BBL 11443) from a mid-log culture. The inoculum was standardized spectrophotometrically at 600 nm and was verified by colony counts. The plates were incubated for 16-20 hours at 37° C., and the minimal inhibitory concentration (MIC) for each peptide was determined. Minimal inhibitory concentration is defined as the lowest concentration of peptide which produces a clear well in the microtiter plate. The minimal inhibitory concentration of each of the peptides with and/or without the appropriate substitutions is given in Table I below.
(§5) The in vitro anti-microbial activities of the methane sulfonate derivatives were determined according to the methods described in Examples 1 and 2. The activities against ATCC strains of S. aureus, E. coli, P. aeruginosa, and C. albicans, and the hemolysis of red blood cells were compared to the parent compound (Table IV). The activities for Compound 843 (Oct-SEQ ID NO:143) methane sulfonate against clinical strains of P. aeruginosa isolated from cystic fibrosis patients were compared to the parent compound (Table V). The activity for Compound 469 (Oct-SEQ ID NO:27) methane sulfonate against P. gingivalis was compared to the parent compound (Table VI).

C. albicans = test system: C. albicans
Text: as §1, §2, §3, §4

[2] = test system: P. aeruginosa strain ATCC 27853; conditions: ATCC 27853
Text: as §1, §2, §3, §4, §5

Compound | Minimal Inhibitory Concentration E [1] | Minimal Inhibitory Concentration CA (C. albicans) | Minimal Inhibitory Concentration P [2]
CCCCCCCC(=O)N[C@@H](CC(C)C)C(=O)N[C@@H](CCCCN)C(=O)N[C@@H](CCCCN)C(=O)N[C@@H](CC(C)C)C(=O)N[C@@H](CC(C)C)C(=O)N[C@@H](CCCCN)C(=O)N[C@@H](CCC(=O)O)C(=O)N[C@@H](CC(C)C)C(=O)N[C@@H](CCCCN)C(=O)N[C@@H](CCCCN)C(=O)N[C@@H](CC(C)C)C(N)=O [Oct-(SEQ ID NO: 131)-NH2] (Octanoyl-LKKLLKELKKL-NH2) | 4 µg/mL | 64 µg/mL | 8 µg/mL
CCCCCCCC(=O)N[C@@H](CC(C)C)C(=O)N[C@@H](CCCCN)C(=O)N[C@@H](CCCCN)C(=O)N[C@@H](CC(C)C)C(=O)N[C@@H](CC(C)C)C(=O)N[C@@H](CCCCN)C(=O)N[C@@H](CCCCN)C(=O)N[C@@H](CC(C)C)C(=O)N[C@@H](CCCCN)C(=O)N[C@@H](CCCCN)C(=O)N[C@@H](CC(C)C)C(=O)N[C@@H](CS)C(N)=O [Oct-(SEQ ID NO: 133)-NH2] (Octanoyl-LKKLLKKLKKLC-NH2) | 32 µg/mL | 128 µg/mL | 32 µg/mL
CCCCCCCC(=O)N[C@@H](CCCCN)C(=O)N[C@@H](CCCCN)C(=O)N[C@@H](Cc1ccccc1)C(=O)NCC(=O)N[C@@H](CCCCN)C(=O)N[C@@H](CCCCN)C(=O)N[C@@H](Cc1ccccc1)C(=O)N[C@H](C(=O)N[C@@H](CCCCN)C(=O)N[C@H](C(=O)N[C@@H](CC(C)C)C(=O)N[C@@H](CCCCN)C(=O)N[C@@H](CCCCN)C(N)=O)[C@@H](C)CC)C(C)C [Oct-(SEQ ID NO: 135)-NH2] (Octanoyl-KKFGKKFVKILKK-NH2) | 64 µg/mL | 64 µg/mL | 8 µg/mL
CCCCCCCC(=O)N[C@@H](CC(C)C)C(=O)N[C@@H](CCCCN)C(=O)N[C@@H](CCCCN)C(=O)N[C@@H](CC(C)C)C(=O)N[C@@H](CC(C)C)C(=O)N[C@@H](CCCCN)C(=O)N[C@@H](CCCCN)C(N)=O [Oct-(SEQ ID NO: 137)-NH2] (Octanoyl-LKKLLKK-NH2) | >256 µg/mL | 256 µg/mL | 256 µg/mL
CCCCCCCC(=O)N[C@@H](CC(C)C)C(=O)N[C@@H](CCCCN)C(=O)N[C@@H](CCCCN)C(=O)N[C@@H](CC(C)C)C(=O)N[C@@H](CC(C)C)C(=O)N[C@@H](CCCCN)C(=O)N[C@@H](CC(C)C)C(=O)N[C@@H](CC(C)C)C(=O)N[C@@H](CCCCN)C(N)=O [Oct-(SEQ ID NO: 138)-NH2] (Octanoyl-LKKLLKLLK-NH2) | 8 µg/mL | 64 µg/mL | 8 µg/mL
CCCCCCCC(=O)N[C@@H](CCCCN)C(=O)N[C@@H](CCCCN)C(=O)N[C@@H](CC(C)C)C(=O)N[C@@H](CC(C)C)C(=O)N[C@@H](CCCCN)C(=O)N[C@@H](CCCCN)C(=O)N[C@@H](CC(C)C)C(=O)N[C@@H](CCCCN)C(=O)N[C@@H](CCCCN)C(=O)N[C@@H](CC(C)C)C(=O)N[C@@H](CC(C)C)C(=O)N[C@@H](CCCCN)C(=O)N[C@@H](CCCCN)C(=O)N[C@@H](CC(C)C)C(N)=O [Oct-(SEQ ID NO: 139)-NH2] (Octanoyl-KKLLKKLKKLLKKL-NH2) | 16 µg/mL | 128 µg/mL | 32 µg/mL
CCCCCCCC(=O)N[C@@H](CC(C)C)C(=O)N[C@@H](CCCN)C(=O)N[C@@H](CCCCN)C(=O)N[C@@H](CC(C)C)C(=O)N[C@@H](CC(C)C)C(=O)N[C@@H](CCCCN)C(=O)N[C@@H](CCCCN)C(=O)N[C@@H](CC(C)C)C(=O)N[C@@H](CCCCN)C(=O)N[C@@H](CCCCN)C(=O)N[C@@H](CC(C)C)C(N)=O [Oct-(SEQ ID NO: 141)-NH2] (Octanoyl-L[Orn]KLLKKLKKL-NH2) | 8 µg/mL | 32 µg/mL | 4 µg/mL
CCCCCCCC(=O)N[C@@H](CC(C)C)C(=O)N[C@@H](CCCN)C(=O)N[C@@H](CCCN)C(=O)N[C@@H](CC(C)C)C(=O)N[C@@H](CC(C)C)C(=O)N[C@@H](CCCN)C(=O)N[C@@H](CCCN)C(=O)N[C@@H](CC(C)C)C(=O)N[C@@H](CCCN)C(=O)N[C@@H](CCCN)C(=O)N[C@@H](CC(C)C)C(N)=O [Oct-(SEQ ID NO: 142)-NH2] (Octanoyl-L[Orn][Orn]LL[Orn][Orn]L[Orn][Orn]L-NH2) | 8 µg/mL | 32 µg/mL | 2 µg/mL
CCCCCCCC(=O)N[C@@H](CCCN)C(=O)N[C@@H](CCCN)C(=O)N[C@@H](CC(C)C)C(=O)N[C@@H](CC(C)C)C(=O)N[C@@H](CCCN)C(=O)N[C@@H](CCC(N)=O)C(=O)N[C@@H](CC(C)C)C(=O)N[C@@H](CCCN)C(=O)N[C@@H](CCCN)C(=O)N[C@@H](CC(C)C)C(N)=O [Oct-(SEQ ID NO: 144)-NH2] (Octanoyl-[Orn][Orn]LL[Orn]QL[Orn][Orn]L-NH2) | 16 µg/mL | 32 µg/mL | 4 µg/mL
CCCCCCCC(=O)N[C@@H](CCCNC(=N)N)C(=O)N[C@@H](CC(C)C)C(=O)N[C@@H](CC(C)C)C(=O)N[C@@H](CCCNC(=N)N)C(=O)N[C@@H](CCCNC(=N)N)C(=O)N[C@@H](CC(C)C)C(=O)N[C@@H](CCCNC(=N)N)C(=O)N[C@@H](CCCNC(=N)N)C(=O)N[C@@H](CC(C)C)C(N)=O [Oct-(SEQ ID NO: 145)-NH2] (Octanoyl-RLLRRLRRL-NH2) | 16 µg/mL | 64 µg/mL | 8 µg/mL
CCCCCCCC(=O)N[C@H](C(=O)N[C@@H](CCCCN)C(=O)N[C@@H](CCCCN)C(=O)N[C@@H](CC(C)C)C(=O)N[C@@H](CC(C)C)C(=O)N[C@@H](CCCCN)C(=O)N[C@@H](CCCCN)C(=O)N[C@@H](CC(C)C)C(=O)N[C@@H](CCCCN)C(=O)N[C@@H](CCCCN)C(=O)N[C@@H](CC(C)C)C(N)=O)C(C)C [Oct-(SEQ ID NO: 146)-NH2] (Octanoyl-VKKLLKKLKKL-NH2) | 16 µg/mL | 32 µg/mL | 4 µg/mL
CCCCCCCC(=O)N[C@@H](CCCCN)C(=O)N[C@@H](CCCCN)C(=O)N[C@@H](CC(C)C)C(=O)N[C@@H](CC(C)C)C(=O)N[C@@H](CCCCN)C(=O)N[C@@H](CCCCN)C(=O)N[C@@H](CC(C)C)C(=O)N[C@@H](CCCCN)C(=O)N[C@@H](CCCCN)C(=O)N[C@@H](CC(C)C)C(=O)N[C@@H](CC(C)C)C(=O)N[C@@H](CCCCN)C(=O)N[C@@H](CCCCN)C(=O)N[C@@H](CC(C)C)C(N)=O [Oct-(SEQ ID NO: 147)-NH2] (Octanoyl-KKLLKKLKKLLKKL-NH2) | 32 µg/mL | 128 µg/mL | 32 µg/mL
CCCCCCCC(=O)N[C@@H](CCCCN)C(=O)N[C@@H](CC(C)C)C(=O)N[C@@H](CCCCN)C(=O)N[C@@H](CCCCN)C(=O)N[C@@H](CC(C)C)C(=O)N[C@@H](CCCCN)C(=O)N[C@@H](CCCCN)C(=O)N[C@@H](CC(C)C)C(=O)N[C@@H](Cc1ccccc1)C(=O)N[C@@H](CCCCN)C(N)=O [Oct-(SEQ ID NO: 148)-NH2] (Octanoyl-KLKKLKKLFK-NH2) | 32 µg/mL | 128 µg/mL | 8 µg/mL
CCCCCCCC(=O)NCC(=O)N[C@H](C(=O)N[C@@H](CCCCN)C(=O)N[C@@H](CCCCN)C(=O)N[C@@H](Cc1ccccc1)C(=O)N[C@@H](CC(C)C)C(=O)N[C@@H](CCCCN)C(=O)N[C@@H](CCCCN)C(=O)N[C@@H](C)C(=O)NCC(=O)N[C@@H](CCCCN)C(=O)N[C@@H](Cc1ccccc1)C(=O)NCC(=O)N[C@@H](CCCCN)C(=O)N[C@@H](C)C(=O)N[C@@H](Cc1ccccc1)C(N)=O)[C@@H](C)CC [Oct-(SEQ ID NO: 149)-NH2] (Octanoyl-GIKKFLKKAGKFGKAF-NH2) | 32 µg/mL | 126 µg/mL | 16 µg/mL
